The source of these data is patent publication US11591315B2, “Substituted pyrazole-pyrimidines, variants thereof, and uses therefore” (Afferent Pharmaceuticals, Inc., priority 2016, dated 2023).

Structures are written as SMILES.

The target of one test is T1, human P2X3 receptor (Homo sapiens, UniProt P56373).
T1 construct: expressed in transfected cells; host or cells: HEK293 human embryonic kidney cells (HEK-hP2X3)
T1 sequence (P56373 1-397): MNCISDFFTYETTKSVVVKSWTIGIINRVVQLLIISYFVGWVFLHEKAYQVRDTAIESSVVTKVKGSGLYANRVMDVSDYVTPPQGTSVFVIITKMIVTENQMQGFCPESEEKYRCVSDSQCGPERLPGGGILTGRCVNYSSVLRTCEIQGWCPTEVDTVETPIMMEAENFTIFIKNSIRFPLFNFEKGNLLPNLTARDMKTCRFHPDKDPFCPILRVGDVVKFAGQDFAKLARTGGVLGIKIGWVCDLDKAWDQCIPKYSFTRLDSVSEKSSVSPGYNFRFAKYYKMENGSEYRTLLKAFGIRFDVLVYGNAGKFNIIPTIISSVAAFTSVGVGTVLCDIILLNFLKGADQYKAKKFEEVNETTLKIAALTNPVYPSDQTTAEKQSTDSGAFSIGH
The test can be described thus: FlexStation calcium fluorescence assay, HEK293 cells stably transfected with human P2X3 (homomeric P2X3 channels). In kind it is cell-based. To be noted: HEK-hP2X3 cells, Calcium 6 dye, agonist 1 μM α,β-meATP, 20 minutes incubation; read-out: Average pIC50 P2X3 (converted). On the procedure:
(§1) 1321N1 human astrocytoma and HEK293 human embryonic kidney cells were stably transfected with human P2X2 and P2X3 receptor subunits to form heteromeric P2X2/3 channels and passaged in flasks. Additionally, HEK293 cells were stably transfected with human P2X3 receptor subunits to form homomeric P2X3 channels.
(§2) Approximately 24 hours before the FlexStation calcium fluorescence experiment, cells were released from their flasks, centrifuged and re-suspended in nutrient medium. The cells were aliquoted into black-wall, clear-bottom 96 well plates at a density of 25,000 cells per well and incubated overnight in a humidified, CO2-enriched (5%) atmosphere at 37° C. […]
(§3) After 20 minutes incubation at room temperature and protected from light, the assay plates were loaded into the FlexStation microplate reader and baseline fluorescence measured with an excitation wavelength of 485 nm and emission wavelength readings centered at 525 nm (515 nm cut off).
(§4) The agonist was dispensed by the FlexStation during fluorescence measurement to construct agonist activation and antagonist inhibition curves. […] Peak fluorescence was measured and curves generated using a four parameter nonlinear regression equation. […]

The target of the next test is T2, human P2X2/3 channels (Homo sapiens, UniProt P56373+Q9UBL9).
T2 construct: expressed in transfected cells; host or cells: 1321N1 human astrocytoma cells (1321N1-hP2X2/3)
T2 sequence (P56373 1-397): T1 sequence (P56373 1-397)
T2 sequence (Q9UBL9 1-471): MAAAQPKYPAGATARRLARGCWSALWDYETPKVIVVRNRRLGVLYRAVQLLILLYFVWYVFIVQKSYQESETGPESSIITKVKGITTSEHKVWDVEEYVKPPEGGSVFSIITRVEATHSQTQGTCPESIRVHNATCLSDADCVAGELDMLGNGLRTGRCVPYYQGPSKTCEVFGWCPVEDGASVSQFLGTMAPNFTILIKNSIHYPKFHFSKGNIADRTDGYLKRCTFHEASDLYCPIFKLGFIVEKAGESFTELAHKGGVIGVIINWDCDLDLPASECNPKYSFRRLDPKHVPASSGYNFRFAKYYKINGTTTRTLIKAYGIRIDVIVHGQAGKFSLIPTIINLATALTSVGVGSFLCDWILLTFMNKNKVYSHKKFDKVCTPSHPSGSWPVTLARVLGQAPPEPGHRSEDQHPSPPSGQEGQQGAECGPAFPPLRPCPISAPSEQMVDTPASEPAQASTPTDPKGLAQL
Briefly: FlexStation calcium fluorescence assay, 1321N1 cells stably transfected with human P2X2 and P2X3 (heteromeric P2X2/3 channels). In kind it is cell-based. To be noted: 1321N1-hP2X2/3 cells, Fluo-4 dye, agonist ATP, 20 minutes incubation; read-out: Average pIC50 P2X2/3 (converted). As to the method:
as §1, §2, §3, §4

As to `COc1cc(Oc2cnc(N)nc2N)n(C(C)C)n1` [Compound 2], the IC50 is 0.288 µM on human P2X3 receptor and 1.95 µM on human P2X2/3 channels.
As for `CCOc1cc(Oc2cnc(N)nc2N)n(C(C)C)n1` [Compound 1], the IC50 at human P2X3 receptor was 6.92 µM; on human P2X2/3 channels, greater than 10 µM.
